# Legend:
# PSAM4-5HT3-HC channel = molecular target: T1, PSAM4-5HT3-HC channel (Homo sapiens, UniProt P36544, L131G/M226I/Q139L/T225I/Y217F); experiment: Voltage-clamp / membrane potential recordings of PSAM4-5HT3-HC-expressing hiPSC-CMs; type: cell-based; details: for effect on Varenicline-induced depolarizing current: picrotoxin 100 uM, partial antagonist of 5HT3-IPD
# T1 construct: expressed in transfected cells
# Excerpt: The synthetic chemogenetic channel PSAM4-5HT3-HC was created by fusing a mutated α7-nicotinic acetylcholine receptor (PSAM4, engineered to bind the anti-smoking drug Varenicline at sub-therapeutic concentrations) with the ion pore-domain (IPD) of the serotonin receptor 3A (5HT3) with additional mutations made for high conductance (HC) (SEQ ID NO: 12). This molecule was disclosed in Magnus, et al., “Ultrapotent chemogenetics for research and potential clinical applications”, Science, 2019 April 12;364 (6436), hercin incorporated by reference in its entirety. This molecule has only ever been used in neurons; however, it was hypothesized that it could also be employed in other electrically active cells. Specifically, it was hypothesized that expressing this chemogenetic channel in cardiomyocytes would permit dose-dependent modulation of their excitable properties; with weak depolarizing currents leading to increased automaticity, and larger currents causing depolarization-induced electrical silencing.
# To test these hypotheses, healthy-donor human induced pluripotent stem cells (hiPSCs) were transfected with a non-viral, randomly integrating, transposon to create a stably engineered line constitutively expressing the PSAM4-5HT3-HC channel together with cGFP (FIG. 1).
# [1] = test system: control unmodified hiPSC-CMs; experiment: Patch-clamp of control unmodified hiPSC-CMs; type: cell-based, human
# Protocol: At higher doses (10 nM), spontaneous generation of action potentials (Aps) ceased (FIG. 2B). This suppression of excitability likely results from the significant membrane diastolic depolarization (−64±7 mV to −10±4 mV; p<0.0001; FIG. 2C) due to the large Varenicline-induced inward current (−6.8±3.2 pA/pF; p<0.01; FIG. 2C).
# [2] = test system: rat hearts transplanted with chemogenetic hiPSC-CMs; experiment: Optical mapping of Langendorff-perfused rat hearts engrafted with chemogenetic hiPSC-CMs; type: in vivo; details: 30 nM, adenosine-induced bradycardia, 7-10 days after transplantation, ex-vivo perfusion
# Excerpt: (§1) Finally, chemogenetic hiPSC-CMs were transplanted into rat hearts. After 7-10 days, hearts were harvested, perfused ex-vivo using a custom-made Langendorff apparatus and optically mapped. Bradycardia was induced using adenosine.
# [3] = test system: control (non-transplanted) rat hearts; experiment: Optical mapping of Langendorff-perfused control (non-transplanted) rat hearts; type: in vivo; details: four control hearts, 30 nM with adenosine
# Excerpt: as §1
# PSAM4-5HT3-hiPSC-CCS = experiment: Optical mapping of PSAM4-5HT3-hiPSC-CCS tissue model; type: cell-based, human; details: 5-30 nM
# Excerpt: To assess the translational potential of these findings, a hiPSC-derived cardiac cell-sheet (hiPSC-CCS) tissue model generated from PSAM4-5HT3-hiPSC-CMs was utilized (FIG. 3A). […] This augmented automaticity was the result of Varenicline-induced depolarizing currents in pacemaker cells driving activity of the cultures.
# [4] = test system: PSAM4-5HT3-hiPSC-CMs / control hiPSC-CMs co-culture; experiment: Co-culture of PSAM4-5HT3-cGFP-hiPSC-CMs beside control hiPSC-CMs, optical mapping; type: cell-based, human
# Protocol: We next created a co-culture model where the PSAM4-5HT3-cGFP-hiPSC-CMs were seeded beside control hiPSC-CMs (FIG. 4A).
# Next, it was tested whether this chemogenetic approach could suppress tissue automaticity and excitability when using higher concentrations of Varenicline (100 nM), as it did in single cells, albeit at lower concentration. This dosing discrepancy probably stems from the more limited drug diffusion and the presence of stronger electrotonic coupling (attenuating Varenicline-induced depolarization) at the tissue level.
# [5] = test system: control, non-transfected, hiPSC-CCSs; experiment: Optical mapping of control, non-transfected hiPSC-CCSs; type: cell-based, human; details: any dose
# native CMs = experiment: Coculture model: native (wild type) CMs; type: cell-based, human; details: 2-5 nM
# Excerpt: (§2) To further illustrate the potential of this technology a coculture model of wild type CMs and CMs engineered to express the compound channel was generated (FIG. 8). In this model, only the CMs in the CCS between the two wild-type CCSs express the compound channel that is responsive to CNO. Reentrant arrhythmias were induced that spanned the whole model. […] As such, the arrhythmia became relegated to a single side of the model. That is an arrhythmia with a core in one CCS (for example the right one) become relegate to just that CCS upon application of CNO, while the other (left) CCS remained unaffected. It was further shown that the left CCS could be electrically paced, and conduction was successful until the wave front reaches the unexcitable engineered CMs. […] Thus, it is clear that native CMs are unaffected by CNO, but the genetically engineered CMs can be robustly ‘silenced’ by the application of CNO at very low concentrations (2-5 nM). Further, arrhythmias are succinctly terminated as a result of this silencing. Upon washout normal electrical activity resumed in the engineered CMs.
# [6] = test system: CMs engineered to express the compound channel; experiment: Coculture model: engineered CCS between two wild-type CCSs, reentrant arrhythmia; type: cell-based, human; details: 5 nM
# Excerpt: as §2
# [7] = test system: cardiac cell sheets expressing SthK and Rm3D; experiment: Reentrant arrhythmia in cardiac cell sheets expressing SthK and Rm3D, optical mapping; type: cell-based, human
# Excerpt: In order to express both the DREADD and the channel in the membrane of cardiomyocytes a vector encoding a single transcript was generated. The open reading frame for SthK was cloned downstream of the chicken B-actin promoter. Instead of a stop codon, at the end of SthK a P2A cleavable peptide was encoded followed by the Rm3D receptor in frame. The result is a reading frame (SEQ ID NO: 4) encoding an 874 amino acid construct (SEQ ID NO: 8) that is co-translationally cleaved near the end of the P2A peptide to produce separate SthK and Rm3D proteins from a single transcript.
# Cardiac cell sheets (CCSs) were generated as a 2D tissue model from the transfected iPSC-CMs and the CCSs were loaded with an optical voltage-dependent dye and mapped using a high-speed EMCCD camera. […] Reentrant arrhythmias were induced by transient tachypacing, and the resultant arrhythmias were stable within the tissue (FIG. 7A). […] This was seen as an inability to excite the cells even with significant electrical stimulation. […] Furthermore, it was shown that a single washout of the drug led to rapid recovery of electrical excitability by electrical pacing (within 30-90 seconds of washout) and the spontaneous resumption of a normal rhythm (sinus) within 2-5 minutes, as would be expected after defibrillation/cardioversion (FIG. 7C). Thus, the arrythmias were successfully terminated upon application of CNO, and normal electrical activity returned almost immediately after washout.
# T1 sequence (P36544 with tags, fused parts or gaps L131G/Q139L/Y217F/T225I/M226I): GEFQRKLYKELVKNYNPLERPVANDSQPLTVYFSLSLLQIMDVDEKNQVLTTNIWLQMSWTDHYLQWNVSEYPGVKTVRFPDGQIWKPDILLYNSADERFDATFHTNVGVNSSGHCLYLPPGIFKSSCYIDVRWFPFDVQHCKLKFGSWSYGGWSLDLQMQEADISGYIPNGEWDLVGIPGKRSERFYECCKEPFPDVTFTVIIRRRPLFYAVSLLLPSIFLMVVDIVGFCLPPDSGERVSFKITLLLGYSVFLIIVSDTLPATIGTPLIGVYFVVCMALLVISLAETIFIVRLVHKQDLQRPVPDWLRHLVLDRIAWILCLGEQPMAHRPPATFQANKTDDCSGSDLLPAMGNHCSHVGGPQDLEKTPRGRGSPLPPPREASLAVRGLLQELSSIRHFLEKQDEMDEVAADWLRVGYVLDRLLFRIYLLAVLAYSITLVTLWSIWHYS
molecule,measurement,setting,value
picrotoxin,effect on Varenicline-induced depolarizing current,PSAM4-5HT3-HC channel,suppressing the depolarizing current
same,effect on Varenicline-induced depolarizing current,PSAM4-5HT3-HC channel; listed as Picrotoxin,partially reversed
c1cnc2cc3c(cc2n1)[C@@H]1CNC[C@H]3C1 [Varenicline],response to Varenicline,[1],No response
same,hearts developing ectopic ventricular activity from area of cell transplantation,[2],four out of five
same,spontaneous generation of action potentials,PSAM4-5HT3-HC channel; 10 nM,ceased
same,membrane diastolic potential after Varenicline,"PSAM4-5HT3-HC channel; depolarization from −64±7 mV, p<0.0001, 10 nM (FIG. 2)",−10±4 mV
same,Varenicline-induced inward current,"PSAM4-5HT3-HC channel; p<0.01, FIG. 2C",−6.8±3.2 pA/pF
same,Varenicline-induced depolarizing currents,"PSAM4-5HT3-HC channel; voltage-clamp, even at low concentrations (1 nM)",robust Varenicline-induced depolarizing currents
same,shift in the activation pattern,[3],did not occur
same,cultures' activation frequency,PSAM4-5HT3-hiPSC-CCS,dose-dependent increase
same,excitability of the region containing non-transfected cells,[4]; 100 nM,retained its excitable properties
same,spontaneous activity of the co-cultures,[4]; 100 nM,significantly slowed
same,electrical activity in the PSAM4-5HT3-hiPSC-CMs area,"[4]; 100 nM, in some specimens",complete silencing of electrical activity
same,origin of spontaneous activity (pacemaker area),[4]; baseline origin in control tissue,shifted the pacemaker area to the PSAM4-5HT3-HC tissue
same,automaticity of co-culture,[4]; escalating doses,augmented automaticity in a dose-dependent manner
same,increase of spontaneous rhythm over baseline,[4]; rhythm arising from the PSAM4-5HT3-hiPSC-CMs,> 6 fold
same,chronotropic effects,[5],no chronotropic effects
"C[N+]1([O-])CCN(C2=Nc3cc(Cl)ccc3Nc3ccccc32)CC1 [CNO, clozapine-N-oxide]",effect on native CMs,native CMs,unaffected
same,conduction of arrhythmia across engineered cells,[6],could no longer cross the engineered cells
same,electrical activity of the CCS,[7]; 2-5 nM,rapid inactivation (silencing)
same,termination of existing reentrant arrhythmias,[7]; 2-5 nM,sufficient to completely terminate existing arrhythmias
same,time to recovery of electrical excitability by electrical pacing after washout,[7]; single washout,30 to 90 s
same,time to spontaneous resumption of a normal rhythm (sinus) after washout,[7]; single washout,2 to 5 min
